Data set [1] is described as follows: Determination of particle size distribution (Sympatec Helos, wet dispersion unit). To be noted: 5 min ultrasound; for X10%: diameter below which 10% of the particles lie; for X50%: diameter below which 50% of the particles lie; for X90%: diameter below which 90% of the particles lie. The data set is classed as physicochemical. Here is the method:
Determination of particle size distribution. Determination of particle size distribution is performed using a Sympatec Helos instrument fitted with a wet dispersion unit. To produce the dispersion medium 10-25 mg of the active compound product of the compound of formula (I) (micronized or non-micronized) are predispersed with 10 ml of water/1 drop of Tween 20 in a small vessel. The dispersion is stirred but not shaken to avoid foam formation. The dispersed material is subsequently added to the deionized water (approx. 0.51) in the wet dispersion unit, treated with ultrasound for 5 minutes and measured (10 seconds). The sound exposure time is 5 minutes, a 50 mm aperture is employed (R2, or if measurement range exceeded, R3), the optical density of the suspension is 10-25%, the stirring/pumping speed is set to 50% (40-60%) and evaluation is carried out after 5 minutes of ultrasound.
The three columns X10%, X50% and X90% indicate the diameter below which 10%, 50% and 90% respectively of the particles of the analysed active compound product lie.

A short description of data set [2]: ATR IR of the modification after micronization. The data set is classed as physicochemical. The source says:
16.1 kg of methyl {4,6-diamino-2-[5-fluoro-1-(2-fluorobenzyl)-1H-pyrazolo[3,4-b]pyridin-3-yl]pyrimidin-5-yl}carbamate of formula (I) in the crystalline form of modification I, produced according to example 13, method E of WO 2013/076168, were micronized to afford 15.2 kg. The yield was 94.4%. […] The ATR IR diagram corresponds to the IR spectrum of the compound of formula (I) in modification I according to FIG. 1 of WO 2013/076168.
39.0 kg of methyl {4,6-diamino-2-[5-fluoro-1-(2-fluorobenzyl)-1H-pyrazolo[3,4-b]pyridin-3-yl]pyrimidin-5-yl}carbamate of formula (I) in the crystalline form of modification I, produced by the process according to the invention of example 4, were micronized to afford 36.9 kg. The yield was 94.6%.
The ATR IR diagram corresponds to the IR spectrum of the compound of formula (I) in modification I according to FIG. 1 of WO 2013/076168.

In data set [1] (listed as 2-1), `COC(=O)Nc1c(N)nc(-c2nn(Cc3ccccc3F)c3ncc(F)cc23)nc1N` [Batch 2-1] gave an X10% of 1.0 μm, an X50% of 11.1 μm and an X90% of 43.0 μm.
In data set [1] (listed as 2-2), `COC(=O)Nc1c(N)nc(-c2nn(Cc3ccccc3F)c3ncc(F)cc23)nc1N` [Batch 2-2] had an X10% of 0.9 μm, an X50% of 4.2 μm and an X90% of 31.9 μm.
Regarding `COC(=O)Nc1c(N)nc(-c2nn(Cc3ccccc3F)c3ncc(F)cc23)nc1N` [Batch 2-3], in data set [1] (listed as 2-3), the X10% worked out at 1.0 μm, the X50% amounted to 4.3 μm and the X90% was 27.4 μm.
As for `COC(=O)Nc1c(N)nc(-c2nn(Cc3ccccc3F)c3ncc(F)cc23)nc1N` [Batch 2-4], in data set [1] (listed as 2-4), the X10% is given as 0.5 μm, the X50% came out at 1.8 μm and the X90% is listed as 9.5 μm.
Turning to `COC(=O)Nc1c(N)nc(-c2nn(Cc3ccccc3F)c3ncc(F)cc23)nc1N` [Batch 2-5], in data set [1] (listed as 2-5), the X10% is given as 1.4 μm, the X50% turned out to be 18.7 μm and the X90% was 50.6 μm.
Regarding `COC(=O)Nc1c(N)nc(-c2nn(Cc3ccccc3F)c3ncc(F)cc23)nc1N` [Batch 2-6], in data set [1] (listed as 2-6), the X10% was found to be 1.0 μm, the X50% is 9.0 μm and the X90% worked out at 34.4 μm.
In data set [1] (listed as 2-7), `COC(=O)Nc1c(N)nc(-c2nn(Cc3ccccc3F)c3ncc(F)cc23)nc1N` [Batch 2-7] gave an X10% of 0.6 μm, an X50% of 4.1 μm and an X90% of 23.6 μm.
In data set [1] (listed as 2-8), `COC(=O)Nc1c(N)nc(-c2nn(Cc3ccccc3F)c3ncc(F)cc23)nc1N` [Batch 2-8] yielded an X10% of 0.6 μm, an X50% of 2.6 μm and an X90% of 13.6 μm.
Take `COC(=O)Nc1c(N)nc(-c2nn(Cc3ccccc3F)c3ncc(F)cc23)nc1N` [compound of formula (I), Methyl {4,6-diamino-2-[5-fluoro-1-(2-fluorobenzyl)-1H-pyrazolo[3,4-b]pyridin-3-yl]pyrimidin-5-yl}carbamate]: the Modification after micronization entry is recorded as “remained in modification I even after micronization” in data set [2] (produced according to example 13, method E of WO 2013/076168, 16.1 kg micronized) and “remained in modification I even after micronization” in data set [2] (produced by the process according to the invention of example 4, 39.0 kg micronized).

The record behind these values is patent US12172996B2, “Methyl {4,6-diamino-2-[5-fluoro-1-(2-fluorobenzyl)-1H-pyrazolo[3,4-b]pyridin-3-yl]pyrimidin-5-yl}carbamate active compound product having improved properties, production and formulation thereof” (Adverio Pharma GmbH, priority 2018, dated 2024).
